Reference: the supplement of paper PMC11061612

Legend:
Assay in all cases: combination Emax (second highest fraction inhibited in the dose matrix, 72 h); higher = more inhibition; extreme values may be limits of the assay
[1] = system: BC-1 (B-Cell Non-Hodgkin's Lymphoma)
Summary of the method: (§1)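 Cell lines in DMEM/F12 or RPMI with 10% FBS were plated in 1536-well plates, held 24 hours at 37°C, 5% CO2, then given two-drug dose matrices for 72 hours (DMSO typically 0.2%). Viability was read by CellTiter-Glo 2.0 luminescence and scaled as inhibition from 0 (vehicle wells) to 1 (blank wells). Combination Emax is the second-highest inhibition in the matrix; Bliss excess is observed combination effect minus expected EA + EB − EA·EB, EA and EB being single-agent effects.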

GCIY (Gastric Carcinoma) = system: GCIY (Gastric Carcinoma)
Summary of the method: as §1

[2] = system: NCI-H1435 (Non-Small Cell Lung Carcinoma)
Summary of the method: as §1

[3] = system: MDA-MB-175-VII (Breast Carcinoma)
Summary of the method: as §1

[4] = system: OCI-M1 (Acute Myeloid Leukemia)
Summary of the method: as §1

[5] = system: MRK-nu-1 (Breast Carcinoma)
Summary of the method: as §1

[6] = system: SW1463 (Colorectal Carcinoma)
Summary of the method: as §1

[7] = system: SBC-5 (Small Cell Lung Carcinoma)
Summary of the method: as §1

[8] = system: COR-L105 (Lung Adenocarcinoma)
Summary of the method: as §1

[9] = system: NCI-H1048 (Small Cell Lung Carcinoma)
Summary of the method: as §1

[10] = system: HT-1197 (Bladder Carcinoma)
Summary of the method: as §1

[11] = system: SBC-3 (Small Cell Lung Carcinoma)
Summary of the method: as §1

[12] = system: ATN-1 (T-Lymphoblastic Leukemia)
Summary of the method: as §1

[13] = system: BT-474 (Breast Carcinoma)
Summary of the method: as §1

[14] = system: NCI-H1648 (Lung Adenocarcinoma)
Summary of the method: as §1

[15] = system: HT-3 (Cervical Carcinoma)
Summary of the method: as §1

[16] = system: GRANTA-519 (B-Cell Non-Hodgkin's Lymphoma)
Summary of the method: as §1

[17] = system: NCI-H1975 (Lung Adenocarcinoma)
Summary of the method: as §1

[18] = system: C2BBe1 (Colorectal Carcinoma)
Summary of the method: as §1

[19] = system: NCI-H2170 (Squamous Cell Lung Carcinoma)
Summary of the method: as §1

| Compound | combination Emax [1] | combination Emax (GCIY (Gastric Carcinoma)) | combination Emax [2] | combination Emax [3] | combination Emax [4] | combination Emax [5] | combination Emax [6] | combination Emax [7] | combination Emax [8] | combination Emax [9] | combination Emax [10] | combination Emax [11] | combination Emax [12] | combination Emax [13] | combination Emax [14] | combination Emax [15] | combination Emax [16] | combination Emax [17] | combination Emax [18] | combination Emax [19] |
| --- | --- | --- | --- | --- | --- | --- | --- | --- | --- | --- | --- | --- | --- | --- | --- | --- | --- | --- | --- | --- |
| COc1nnc2ccc(N3CCC(c4ccc(OCCN5CCN(C)C(=O)[C@H]5C)cc4)CC3)nn12 [AZD5153] + Cn1cnc2c(F)c(Nc3ccc(Br)cc3Cl)c(C(=O)NOCCO)cc21 [Selumetinib] (first compound max 1 µM, 7x7, partner max 10 µM) | 0.945 | 0.598 | 0.233 | 0.493 | 1 | 0.306 | 0.732 | 0.662 | 0.621 | 0.449 | 0.806 | 0.699 | 0.508 | 0.385 | 0.88 | 0.399 | 0.206 | 0.72 | 0.701 | 0.405 |
| COc1nnc2ccc(N3CCC(c4ccc(OCCN5CCN(C)C(=O)[C@H]5C)cc4)CC3)nn12 [AZD5153] + C=CCn1c(=O)c2cnc(Nc3ccc(N4CCN(C)CC4)cc3)nc2n1-c1cccc(C(C)(C)O)n1 [AZD1775] (first compound max 1 µM, partner max 1 µM) | 0.979 | 0.605 | 0.24 | 0.432 | 0.999 | 0.309 | 0.478 | 0.846 | 0.474 | 0.787 | 0.724 | 0.767 | 0.98 | 0.526 | 0.737 | 0.553 | 0.874 | 0.728 | 0.547 | 0.735 |
| CC1(C)CCC(CN2CCN(c3ccc(C(=O)NS(=O)(=O)c4ccc(NCC5CCOCC5)c([N+](=O)[O-])c4)c(Oc4cnc5[nH]ccc5c4)c3)CC2)=C(c2ccc(Cl)cc2)C1 [Venetoclax] + C[C@@H]1COCCN1C2=NC(=NC(=C2)C3(CC3)[S@](=N)(=O)C)C4=C5C=CNC5=NC=C4 [AZD6738] (first compound max 1 µM, 7x7, partner max 10 µM) | 0.933 | 0.879 | 0.177 | 0.251 | 1 | 0.665 | 0.411 | 0.792 | 0.421 | 0.7 | 0.441 | 0.926 | 0.973 | 0.206 | 0.668 | 0.452 | 0.99 | 0.433 | 0.461 | 0.691 |
| CS(=O)(=O)CCNCc1ccc(-c2ccc3ncnc(Nc4ccc(OCc5cccc(F)c5)c(Cl)c4)c3c2)o1 [Lapatinib] + C[C@@H](Oc1cc(-c2cnn(C3CCNCC3)c2)cnc1N)c1c(Cl)ccc(F)c1Cl [Crizotinib] (first compound max 10 µM, 7x7, partner max 10 µM) | 0.959 | 0.882 | 0.871 | 1 | 0.996 | 0.477 | 0.802 | 0.832 | 0.815 | 0.525 | 0.536 | 0.971 | 0.988 | 0.905 | 0.971 | 0.234 | 0.751 | 0.631 | 0.745 | 0.998 |
| COc1nnc2ccc(N3CCC(c4ccc(OCCN5CCN(C)C(=O)[C@H]5C)cc4)CC3)nn12 [AZD5153] + C[C@@H]1COCCN1C2=NC(=NC(=C2)C3(CC3)[S@](=N)(=O)C)C4=C5C=CNC5=NC=C4 [AZD6738] (first compound max 1 µM, 7x7, partner max 10 µM) | 0.989 | 0.794 | 0.3 | 0.529 | 1 | 0.814 | 0.555 | 0.83 | 0.477 | 0.678 | 0.724 | 0.784 | 0.984 | 0.483 | 0.821 | 0.601 | 0.906 | 0.737 | 0.579 | 0.788 |
| COc1cccc(OCCCN)c1-c1cc(Nc2cnc(C#N)cn2)n[nH]1 [Prexasertib] + C=CCn1c(=O)c2cnc(Nc3ccc(N4CCN(C)CC4)cc3)nc2n1-c1cccc(C(C)(C)O)n1 [AZD1775] (first compound max 1 µM, partner max 1 µM) | 1 | 0.911 | 0.403 | 0.424 | 0.969 | 0.942 | 0.795 | 0.94 | 0.444 | 0.955 | 0.646 | 0.923 | 1 | 0.234 | 0.83 | 0.75 | 0.867 | 0.516 | 0.613 | 0.95 |
| CN(C)CCCOc1ccc(-c2ccc3ncc4c(c3c2)n(C2CCOCC2)c(=O)n4C)cn1 [AZD0156] + C=CCn1c(=O)c2cnc(Nc3ccc(N4CCN(C)CC4)cc3)nc2n1-c1cccc(C(C)(C)O)n1 [AZD1775] (first compound max 1 µM, partner max 1 µM) | 0.999 | 0.63 | 0.193 | 0.299 | 0.869 | 0.246 | 0.422 | 0.423 | 0.418 | 0.664 | 0.486 | 0.442 | 1 | 0.195 | 0.587 | 0.331 | 0.816 | 0.356 | 0.209 | 0.7 |
| CC(=O)Nc1cccc(-n2c(=O)n(C3CC3)c(=O)c3c(Nc4ccc(I)cc4F)n(C)c(=O)c(C)c32)c1 [Trametinib] + Cc1nc(-c2cn3c(n2)-c2ccc(-c4cnn(C(C)(C)C(N)=O)c4)cc2OCC3)n(C(C)C)n1 [Taselisib] (first compound max 1 µM, 7x7, partner max 10 µM) | 0.546 | 0.99 | 0.896 | 1 | 1 | 0.814 | 0.785 | 0.784 | 0.9 | 1 | 0.76 | 0.703 | 0.74 | 0.841 | 1 | 0.673 | 0.189 | 0.96 | 0.916 | 0.919 |
| CN(C)CCCOc1ccc(-c2ccc3ncc4c(c3c2)n(C2CCOCC2)c(=O)n4C)cn1 [AZD0156] + C[C@@H]1COCCN1C2=NC(=NC(=C2)C3(CC3)[S@](=N)(=O)C)C4=C5C=CNC5=NC=C4 [AZD6738] (first compound max 1 µM, 7x7, partner max 10 µM) | 0.936 | 0.851 | 0.158 | 0.342 | 0.982 | 0.648 | 0.558 | 0.813 | 0.472 | 0.468 | 0.526 | 0.798 | 1 | 0.198 | 0.676 | 0.609 | 0.82 | 0.407 | 0.434 | 0.799 |
| CC(=O)c1c(C)c2cnc(Nc3ccc(N4CCNCC4)cn3)nc2n(C2CCCC2)c1=O [Palbociclib] + CC1(C)CCC(CN2CCN(c3ccc(C(=O)NS(=O)(=O)c4ccc(NCC5CCOCC5)c([N+](=O)[O-])c4)c(Oc4cnc5[nH]ccc5c4)c3)CC2)=C(c2ccc(Cl)cc2)C1 [Venetoclax] (first compound max 10 µM, 7x7, partner max 1 µM) | 0.917 | 0.17 | 0.132 | 0.171 | 0.499 | 0.37 | 0.603 | 0.23 | 0.0862 | 0.287 | 0.16 | 0.613 | 0.608 | 0.0591 | 0.325 | 0.116 | 0.541 | 0.423 | 0.111 | 0.362 |
| CCN(CCO)CCCOc1ccc2c(Nc3cc(CC(=O)Nc4cccc(F)c4)[nH]n3)ncnc2c1 [AZD2811] + C=CCn1c(=O)c2cnc(Nc3ccc(N4CCN(C)CC4)cc3)nc2n1-c1cccc(C(C)(C)O)n1 [AZD1775] (first compound max 1 µM, partner max 1 µM) | 0.989 | 0.41 | 0.143 | 0.205 | 0.922 | 0.373 | 0.48 | 0.732 | 0.331 | 0.859 | 0.481 | 0.539 | 1 | 0.125 | 0.439 | 0.241 | 0.798 | 0.364 | 0.274 | 0.716 |
| CCc1c2c(nc3ccc(O)cc13)-c1cc3c(c(=O)n1C2)COC(=O)[C@]3(O)CC [SN-38] + CN(C)CCCOc1ccc(-c2ccc3ncc4c(c3c2)n(C2CCOCC2)c(=O)n4C)cn1 [AZD0156] (first compound max 0.3 µM, 7x7, partner max 1 µM) | 0.979 | 0.8 | 0.202 | 0.631 | 0.991 | 0.803 | 0.634 | 0.864 | 0.536 | 0.968 | 0.156 | 0.919 | 1 | 0.0708 | 0.875 | 0.95 | 0.93 | 0.514 | 0.149 | 0.919 |
| Cn1cnc2c(F)c(Nc3ccc(Br)cc3Cl)c(C(=O)NOCCO)cc21 [Selumetinib] + C=CCn1c(=O)c2cnc(Nc3ccc(N4CCN(C)CC4)cc3)nc2n1-c1cccc(C(C)(C)O)n1 [AZD1775] (first compound max 10 µM, partner max 1 µM) | 0.993 | 0.475 | 0.209 | 0.558 | 0.956 | 0.0295 | 0.665 | 0.514 | 0.534 | 0.862 | 0.507 | 0.269 | 0.974 | 0.346 | 0.621 | 0.195 | 0.869 | 0.492 | 0.569 | 0.699 |
